Key:
[1] = molecular target: T1, Bromodomain-containing protein 4 (Homo sapiens, UniProt O60885); assay: Inhibition of biotin-labelled histone peptide binding to His-tagged BRD4 (unknown origin) expressed in Escherichia coli after 30 mins by TR-FRET assay
[2] = molecular target: T1, Bromodomain-containing protein 4
Description: Inhibition of biotinylated Acetyl-Histone H4 (Lys5, 8, 12, 16) peptide binding to GST-tagged BRD4 bromodomain 1 (44 to 168 residues) (unknown origin) after 30 mins by Alphascreen method

[3] = molecular target: T1, Bromodomain-containing protein 4; assay: Inhibition of biotinylated histone H4 peptide binding to BRD4 bromodomain 1 (44 to 168 residues) (unknown origin) after 60 mins by Alphascreen method
[4] = molecular target: T1, Bromodomain-containing protein 4; assay: Inhibition of biotinylated histone H4 peptide binding to BRD4 bromodomain 2 (333 to 460 residues) (unknown origin) after 60 mins by Alphascreen method
[5] = molecular target: T1, Bromodomain-containing protein 4; assay: Inhibition of His6-tagged BRD4 (1 to 477 residues) (unknown origin) after 1 hr by Alexa fluor 488-conjugated probe based fluorescence anisotropy
[6] = molecular target: T1, Bromodomain-containing protein 4; assay: Inhibition of acetyl-histone H4 peptide binding to His6-tagged BRD4 (1 to 477 residues) (unknown origin) after 35 mins by TR-FRET assay
[7] = molecular target: T1, Bromodomain-containing protein 4; assay: Inhibition of BRD4 bromodomain 2 (unknown origin)
[8] = molecular target: T1, Bromodomain-containing protein 4; assay: Inhibition of BRD4 bromodomain 1 (unknown origin)
MV4-11 [9] = assay: Antitumor activity against human MV4-11 cells xenografted in po dosed mouse assessed as tumor regression administered once daily relative to control; assay type: functional
MOLM-13 [10] = assay: Antiproliferative activity against human MOLM13 cells; assay type: functional, cell-based
[11] = Oral bioavailability in rat; assay type: ADME, organism-based; conditions: in vivo
MV4-11 [12] = assay: Antiproliferative activity against human MV4-11 cells; assay type: functional, cell-based
[13] = Oral bioavailability in dog; assay type: ADME, organism-based, Canis lupus familiaris; conditions: in vivo
[14] = Oral bioavailability in monkey; assay type: ADME, organism-based, Macaca mulatta; conditions: rhesus monkey, in vivo
CHP-212 = assay: Antitumor activity against human CHP212 cells xenografted in Crl:CD-1-Foxn1 nude mouse assessed as tumor growth inhibition at 15 mg/kg, po administered once daily for 42 days relative to control; assay type: functional; conditions: CHP-212, po, 1008 h, read-out: TGI
[15] = Antiproliferative activity against human CLL cells assessed as inhibition of CpG-induced cell proliferation treated for 4 hrs followed by compound washout for 44 to 48 hrs by MTS assay; assay type: functional, cell-based
[16] = Induction of apoptosis in human Mino cells after 48 hrs by Annexin-V/propidium iodide staining based assay; assay type: functional, cell-based
VCaP = assay: Antitumor activity against human VCaP cells xenografted in mouse assessed as tumor growth inhibition at 30 mg/kg, sc administered once every 3 days for 15 days; conditions: 360 h, read-out: TGI
Z-138 = assay: Induction of apoptosis in human ibrutinib-resistant Z138 cells after 48 hrs by Annexin-V/propidium iodide staining based assay; assay type: functional, cell-based; conditions: Z-138, 48 h
[17] = molecular target: T1, Bromodomain-containing protein 4; assay: Inhibition of His-tagged BRD4 bromodomain 1 (K57 to E168 residues) (unknown origin) by Alexa-647 conjugated probe based TR-FRET assay; assay type: single protein
[18] = molecular target: T1, Bromodomain-containing protein 4; assay: Inhibition of His-tagged BRD4 bromodomain 2 (E352 to M457 residues) (unknown origin) by Alexa-647 conjugated probe based TR-FRET assay; assay type: single protein
OPM-2 [19] = assay: Antitumor activity against human OPM2 cells xenografted in SCID Beige mouse assessed as tumor growth inhibition at 5 mg/kg, po administered once daily for 21 days relative to control; assay type: functional; conditions: OPM-2, po, 504 h, read-out: TGI
MX1 [20] = assay: Antiproliferative activity against human MX1 cells after 72 hrs by CellTiter-Glo assay; assay type: functional, cell-based; conditions: MX1, 72 h
[21] = molecular target: Bromodomain-containing protein 4 (Homo sapiens, UniProt O60885, Y97A); assay: Inhibition of recombinant human N-terminal His6-tagged BRD4 Y97A mutant (1 to 477 residues) expressed in Escherichia coli after 30 mins by Alexa Fluor647 conjugated probe based TR-FRET assay
[22] = molecular target: T1, Bromodomain-containing protein 4; assay: Binding affinity to BRD4 bromodomain 1 (unknown origin) by isothermal titration calorimetry
HL-60 = assay: Growth inhibition of human HL60 cells at 10 uM after 48 hrs by sulforhodamine B assay; assay type: functional; conditions: HL-60, 48 h, read-out: GI
MDA-MB-453 [23] = assay: Antitumor activity against human MDA-MB-453 cells xenografted in SCID mouse assessed as tumor growth inhibition at 5 mg/kg, iv; conditions: MDA-MB-453, iv, read-out: TGI
MDA-MB-453 [24] = assay: Antiproliferative activity against human MDA-MB-453 cells; assay type: functional, cell-based
MX1 [25] = assay: Antiproliferative activity against human MX1 cells; assay type: functional, cell-based
[26] = molecular target: T1, Bromodomain-containing protein 4; assay: Inhibition of biotinylated Acetyl-Histone H4 (Lys5, 8, […], […]) peptide binding to GST-tagged BRD4 bromodomain 2 (333 to 460 residues) (unknown origin) after 30 mins by Alphascreen method
OPM-2 [27] = assay: Antitumor activity against human OPM2 cells xenografted in SCID Beige mouse assessed as tumor growth inhibition at 2.5 mg/kg, po administered once daily for 21 days relative to control; assay type: functional; conditions: OPM-2, po, 504 h, read-out: TGI
[28] = molecular target: T1, Bromodomain-containing protein 4; assay: Inhibition of BRD4 in human MM1S cells assessed as down regulation of c-Myc expression after 1 hr by Western blot analysis
[29] = molecular target: T1, Bromodomain-containing protein 4; assay: Binding affinity to human partial length BRD4 bromodomain 1 long isoform (N44 to E168 residues) expressed in bacterial expression system by BROMOscan assay
MV4-11 [30] = assay: Antiproliferative activity against human MV4-11 cells after 72 hrs by CellTiter-Glo assay; assay type: functional, cell-based; conditions: MV4-11, 72 h
[31] = molecular target: T1, Bromodomain-containing protein 4; assay: Inhibition of recombinant human N-terminal His-tagged/C-terminal FLAG-tagged BRD4 bromodomain 1 (44 to 168 residues) expressed in Escherichia coli using histone peptide as substrate preincubated for 15 mins followed by substrate addition and measured after 60 mins
[32] = molecular target: T1, Bromodomain-containing protein 4; assay: Inhibition of biotin-labelled tetra-acetylated histone peptide binding to recombinant human N-terminal His6-tagged BRD4 bromodomain 1 (1 to 477 residues) (unknown origin) expressed in Escherichia coli after 1 hr by TR-FRET assay
[33] = molecular target: T1, Bromodomain-containing protein 4; assay: Inhibition of acetylated biotin-labelled RHGSGSK binding to N-terminal His6-tagged BRD4 bromodomain 1 (44 to 168 residues) (unknown origin) expressed in Escherichia coli after 1 hr by TR-FRET assay
MOLM-13 [34] = assay: Antiproliferative activity against human MOLM13 cells after 96 hrs by alamar blue assay; assay type: functional, cell-based; conditions: MOLM-13, 96 h
[35] = molecular target: T1, Bromodomain-containing protein 4; assay: Inhibition of acetylated biotin-labelled RHGSGSK binding to N-terminal His6-tagged BRD4 bromodomain 1 (67 to 152 residues) (unknown origin) expressed in Escherichia coli after 1 hr by TR-FRET assay
[36] = molecular target: T1, Bromodomain-containing protein 4; assay: Inhibition of acetylated biotin-labelled RHGSGSK binding to BRD4 bromodomain 2 (unknown origin) after 1 hr by TR-FRET assay

Compound: COc1ccc2c(ncc3nc(C4CCOCC4)n([C@H](C)COC(F)F)c32)c1-c1c(C)noc1C
- IC50 [1]: 10 to 21 nM

Compound: CCN1C(=O)C(C)(C)c2cc3nc(-c4cc(C)c(=O)n(C)c4)n([C@@H](C)c4ccccc4)c3cc21
- IC50 [2]: 1.3 nM

Compound: CC(=O)N1c2ccc(-c3ccc(-c4cnn(C5CC5)c4)c(OC[C@H]4CC4(F)F)c3)cc2CC[C@H]1C
- IC50 [3]: < 100 nM
- IC50 [4]: < 50 nM

Compound: COc1cnc2c(ncc3[nH]c(=O)n(Cc4ccccc4OC(F)(F)F)c32)c1-c1c(C)noc1C
- IC50 [5]: 158 nM

Compound: CC(=O)N1CC(n2cc(C3CC3)c3c2C(c2ccc(Cl)cc2)N(c2cc(C)c4nnn(C)c4n2)C3=O)C1 (stereo not given)
- IC50 [6]: < 11 nM

Compound: COc1ccc2c([nH]c3nc(C)nc(-c4ccnc5ccccc45)c32)c1-c1c(C)noc1C
- Ki [7]: 1.4 nM
- Ki [8]: 8.2 nM
- Activity (MV4-11 [9]): >80%
- IC50 (MOLM-13 [10]): 53 nM
- bioavailability [11]: 93%
- IC50 (MV4-11 [12]): 26 nM

Compound: Cc1nn(C2CC2)c2c1[C@@H](c1ccc(Cl)cc1)N(c1cc(C)c3nnc(C)n3n1)C2=O
- IC50 [6]: < 11 nM

Compound: CC(=O)N1c2ccc(-c3ccc(C(=O)O)cc3)cc2[C@H](Nc2ccc(Cl)cc2)C[C@@H]1C
- bioavailability [13]: 80%
- bioavailability [14]: 100%
- inhibition in vivo at 15 mg/kg (CHP-212): 82%

Compound: Cc1noc(C)c1-c1cnc2c(-c3ccc(C(=O)O)cc3)cn([C@@H](C)c3ccccn3)c2c1 [PLX-51107]
- IC50 [15]: 156 to 10000 nM

Compound: COc1ccc2c(ncc3nc(C4CCC(F)(F)CC4)n([C@H](C)COC(F)F)c32)c1-c1c(C)noc1C
- IC50 [1]: 10 to 21 nM

Compound: Cc1ncsc1-c1ccc([C@H](C)NC(=O)[C@@H]2C[C@@H](O)CN2C(=O)[C@@H](NC(=O)COCCCOCCNC(=O)C[C@@H]2N=C(c3ccc(Cl)cc3)c3c(sc(C)c3C)-n3c(C)nnc32)C(C)(C)C)cc1
- IC50 [16]: 17 nM
- inhibition in vivo at 30 mg/kg (VCaP): 60%
- IC50 (Z-138): 142 nM

Compound: Cn1cc2c3c(c[nH]c(=O)c31)CN(c1ccc(F)cc1F)c1ccc(CS(C)(=O)=O)cc1-2
- IC50 [17]: 1.8 nM
- IC50 [18]: 2 nM
- inhibition in vivo at 5 mg/kg (OPM-2 [19]): 81%
- EC50 (MX1 [20]): 16 nM

Compound: COc1cnc2c(ncc3[nH]c(=O)n(Cc4ccccc4)c32)c1-c1c(C)noc1C
- IC50 [5]: 316 nM

Compound: CC(=O)N1c2ccc(-c3ccc(C#N)cc3)cc2[C@H](Nc2ncccc2F)[C@@H](C)[C@@H]1C1CC1
- IC50 [21]: < 100 nM

Compound: COc1ccc2c(ncc3nc(N4CCOCC4)n([C@H](C)COC(F)F)c32)c1-c1c(C)noc1C
- IC50 [1]: 10 nM

Compound: CCc1c(C(=O)Nc2cc(S(=O)(=O)N(CC)CC)ccc2O)[nH]c(C)c1C(C)=O
- Kd [22]: 237 nM
- inhibition of growth at 10 µM (HL-60): 65%

Compound: CCn1nc(C2CC2)cc1Nc1nc(C(=O)NCCCOCCOCCOCCCNc2cccc3c2CN(C2CCC(=O)NC2=O)C3=O)nc2[nH]c3cc(-c4c(C)noc4C)c(OC)cc3c12 (stereo not given)
- inhibition in vivo at 5 mg/kg (MDA-MB-453 [23]): 85%
- IC50 (MDA-MB-453 [24]): < 10 nM
- IC90 (MDA-MB-453 [24]): < 100 nM

Compound: CCS(=O)(=O)Nc1ccc(Oc2ccc(F)cc2F)c(-c2cn(C)c(=O)c3[nH]c(C#CCN(C)C)cc23)c1
- EC50 (MX1 [25]): 9.4 nM
- Ki [26]: 3.3 nM
- Ki [2]: 1.3 nM

Compound: Cn1cc2c3c(c[nH]c(=O)c31)CN(c1ccccn1)c1ccc(CS(C)(=O)=O)cc1-2
- inhibition in vivo at 2.5 mg/kg (OPM-2 [27]): 79%
- IC50 [17]: 1.1 nM
- IC50 [18]: 2.1 nM
- EC50 (MX1 [20]): 16 nM

Compound: COc1nnc2ccc(N3CCC(c4ccc(OCCN5CCN(C)C(=O)[C@H]5C)cc4)CC3)nn12 [AZD-5153]
- IC50 [28]: 5.4 nM

Compound: Cc1sc2c(c1C)C(c1ccc(Cl)cc1)=N[C@@H](CC(=O)OCCCCCCO)c1nnc(C)n1-2
- IC50 [29]: 0.43 nM

Compound: CC[C@@H]1C(=O)Nc2ccc(-c3c(C)noc3C)cc2N1Cc1ccccc1
- IC50 (MV4-11 [30]): 258 nM
- IC50 [31]: 70 nM

Compound: Cc1noc(C)c1-c1ccc2c(c1)C(C1CCCC1)(N1CCC[C@H](N)C1)C(=O)N2 (stereo not given in full)
- IC50 [32]: 8 nM
- IC50 (MV4-11 [12]): 34 nM

Compound: Cc1nnc(C[C@@H]2N=C(c3ccc(Cl)cc3)c3ccccc3-n3c(C)nnc32)o1
- IC50 [33]: 20 nM
- EC50 (MOLM-13 [34]): 140 nM

Compound: C[C@@H]1C(=O)N(C)c2ccc(-c3ccc(Nc4cccc(S(=O)(=O)N(C)C)c4)cc3)nc2N1C1CCN(C)CC1
- IC50 [35]: 20 nM
- IC50 [36]: 43 nM

— ChEMBL document CHEMBL4368853 (Medchemcomm, 2018)
